Values quoted from earlier work, collected in patent US20180243418A1, “SYSTEMS AND METHODS FOR TARGETED CANCER THERAPIES” (American University of Sharjah, priority 2017, published 2018).

Experiments:
VX2 carcinoma cells = conditions: rabbits implanted with VX2 carcinoma cells, intravenous
[1] = test system: human and mice melanoma cells; conditions: melanoma cells treated for about 8 hours

COc1cccc2c1C(=O)c1c(O)c3c(c(O)c1C2=O)C[C@@](O)(C(=O)CO)C[C@@H]3O[C@H]1C[C@H](N)[C@H](O)[C@H](C)O1 [free Dox, doxorubicin]
concentration of Dox in tumors (VX2 carcinoma cells): about 4.0±1.0 μg Dox/g tissues | accumulation in the nucleus, of the initial amount [1]: about 26% | initial concentration detected in the cell cytoplasm [1]: about 0.5%
